# Values of other authors in patent publication US7067315B2, “Identification of anti-protozoal agents” (President and Fellows of Harvard College, priority 2001, dated 2006).
# Tested on: Apicomplexan parasites
# Details: several Apicomplexan parasites; by net actin filament depolymerization
smiles,measurement,value
C=C1[C@@H](C)[C@H]2[C@H](Cc3ccccc3)NC(=O)[C@]23[C@H](OC(C)=O)/C=C/[C@@](C)(O)C(=O)[C@@H](C)C/C=C/[C@H]3[C@@H]1O [cytochalsin D],inhibition of parasite motility and invasion,inhibits parasite motility and invasion
